Measurements as given in paper PMC4840931 (Clinical cancer research : an official journal of the …, 2015).
Marks after values point to notes of the source that are not given here.

Tests used:
[1] = test system: human umbilical vein endothelial cell; settings: cited from earlier work
[2] = test system: human umbilical vein endothelial cell; settings: cited from earlier work; remark: listed apart in the source
[3] = test system: human lung (H146) mouse xenograft; settings: cited from earlier work
[4] = test system: breast cancer (MDA-MB-231) mouse xenograft; settings: cited from earlier work
[5] = Urinary excretion of unchanged lenvatinib; format: in vivo, human; settings: for fe (fraction of the dose excreted in urine): mean (SD)
[6] = test system: patients with advanced solid tumors; assay: Tumor response by RECIST version 1.0; format: in vivo, human
Plasma pharmacokinetics = settings: human, in vivo

In the case of `COc1cc2nccc(Oc3ccc(NC(=O)NC4CC4)c(Cl)c3)c2cc1C(N)=O` [lenvatinib], the “VEGF-driven human umbilical vein endothelial cell proliferation” value [1] is listed as “inhibits”, the “VEGF-driven human umbilical vein endothelial cell tube formation” value [2] is listed as “inhibits” and the Tumor growth [3] is listed as “significantly inhibits”. For the same compound, the Tumor growth [4] was “significantly inhibits”, the “fe (fraction of the dose excreted in urine)” value ([5]; Melanoma Expansion Cohort, Cycle 1 Day 1, 10 mg, n=25) was 0.45 (0.282) % and the “fe (fraction of the dose excreted in urine)” value ([5]; Melanoma Expansion Cohort, Cycle 2 Day 1, 10 mg, n=16) was 0.95 (0.987) %. For the same compound, the “fe (fraction of the dose excreted in urine)” value ([5]; Schedule 2 continuous daily dosing, Cycle 1 Day 1, 3.2 mg, n=3) was 0.37 (0.102) %, the “fe (fraction of the dose excreted in urine)” value ([5]; Schedule 2 continuous daily dosing, Cycle 1 Day 1, 5 mg, n=7) was 1.47 (0.685) % and the “fe (fraction of the dose excreted in urine)” value ([5]; Schedule 2 continuous daily dosing, Cycle 1 Day 1, 8 mg, n=10) was 0.83^a (0.351) %. The “fe (fraction of the dose excreted in urine)” value ([5]; Schedule 2 continuous daily dosing, Cycle 1 Day 1, 12 mg, n=4) was 0.68 (0.283) %, the “fe (fraction of the dose excreted in urine)” value ([5]; Schedule 2 continuous daily dosing, Cycle 2 Day 1, 8 mg, n=6) was 1.26 (1.168) % and the “fe (fraction of the dose excreted in urine)” value ([5]; Schedule 2 continuous daily dosing, Cycle 2 Day 1, 16 mg, n=6) was 1.35 (0.593) %. The “Fraction of the dose excreted unchanged in the urine (fe)” value ([5]; during the 24 hours following the dose, regardless of dose) was under 1.5%, the “Durable SD ≥23 weeks” value ([6]; all 29 patients with melanoma) was 24.1% and the PD ([6]; all 29 patients with melanoma) was 17.2%. The PR ([6]; all 29 patients with melanoma) was 10.3%, the “PRs/uPRs as best response” value ([6]; all 29 patients with melanoma) was 17.2% and the “PR or uPR in patients with wild-type BRAF” value ([6]; expanded melanoma cohort, 3 of 17 patients) was 17.6%. The “Responses (PR/uPR) by disease: lung” value ([6]; in vivo) was 1/1, the “Responses (PR/uPR) by disease: melanoma” value ([6]; in vivo) was 5/29 and the “Responses (PR/uPR) by disease: ovarian” value ([6]; in vivo) was 1/5. For the same compound, the “Responses (PR/uPR) by disease: pancreatic” value ([6]; in vivo) was 1/2, the “Responses (PR/uPR) by disease: renal” value ([6]; in vivo) was 1/1 and the “Responses (PR/uPR) by disease: thyroid” value ([6]; in vivo) was 3/6. The “PR/uPR as best response” value ([6]; overall, n=77) was 15.6%, the “Total PR/uPR/SD≥23 weeks” value ([6]; overall, n=77) was 40.3% and the “Median number of cycles after which confirmed PRs were determined” value ([6]; overall, range, 4–46 cycles) was 18 cycles. The “Confirmed PR” value ([6]; schedule 1, 18 patients) was “no patient”, the PD ([6]; schedule 1, 18 patients) was 44.4% and the uPR ([6]; schedule 1, NSCLC) was “One”. For the same compound, the “Confirmed PR” value ([6]; schedule 2, 33 patients) was 21.2%, the “Durable SD” value ([6]; schedule 2, 33 patients) was 9 patients and the PD ([6]; schedule 2, 33 patients) was 18.2%. The “Accumulation, steady state vs single dose” value (Plasma pharmacokinetics) was 1.5-2.2 fold, the Tmax (Plasma pharmacokinetics) was 1.5 to 3 h and the Cmax (Plasma pharmacokinetics; 3.2 mg) was 51.4 (30.5) ng/mL. The AUC(0-t) (Plasma pharmacokinetics; 3.2 mg, AUC0-6) was 180 ng·h/mL, the AUC(0-t) (Plasma pharmacokinetics; 3.2 mg, AUC0-24) was 407 ng·h/mL and the AUC0-24 (Plasma pharmacokinetics; 5 mg) was 649.70 (256.151) ng·hr/mL. The AUC(0-t) (Plasma pharmacokinetics; 5 mg, AUC0-6) was 245 ng·h/mL, the Cmax (Plasma pharmacokinetics; 5 mg, Cmax) was 62.6 ng/mL and the AUC0-6 (Plasma pharmacokinetics; 8 mg) was 678 (262) ng·hr/mL. The AUC0-24 (Plasma pharmacokinetics; 8 mg) was 1819.57 (735.252) ng·hr/mL, the CL/F (Plasma pharmacokinetics; 8 mg) was 8.05 L/h and the Cmax (Plasma pharmacokinetics; 8 mg) was 168 (73.4) ng/mL. It also gave a Tmax (Plasma pharmacokinetics; 8 mg) of 2.5 h, a Vd/F (Plasma pharmacokinetics; 8 mg) of 86.8 L and an AUC(0-t) (Plasma pharmacokinetics; 8 mg, AUC0-6) of 613 ng·h/mL. For the same compound, the AUC(0-t) (Plasma pharmacokinetics; 8 mg, AUC0-24) was 1300 ng·h/mL, the Cmax (Plasma pharmacokinetics; 8 mg, Cmax) was 177 ng/mL and the AUC0-6 (Plasma pharmacokinetics; 10 mg) was 815(320) ng·hr/mL. For the same compound, the AUC0-24 (Plasma pharmacokinetics; 10 mg) was 1984.94 (971.427) ng·hr/mL, the Cmax (Plasma pharmacokinetics; 10 mg) was 209 (107) ng/mL and the Tmax (Plasma pharmacokinetics; 10 mg) was 2 h. The Vd/F (Plasma pharmacokinetics; 10 mg) was 75.4 L, the tmax (Plasma pharmacokinetics; 10 mg) was 3.00 (0.00−6.00) hr and the AUC(0-t) (Plasma pharmacokinetics; 10 mg, AUC0-6) was 608 ng·h/mL. For the same compound, the AUC(0-t) (Plasma pharmacokinetics; 10 mg, AUC0-24) was 1370 ng·h/mL, the Cmax (Plasma pharmacokinetics; 10 mg, Cmax) was 167 ng/mL and the Tmax (Plasma pharmacokinetics; 12 mg) was 1.5 h. The AUC(0-t) (Plasma pharmacokinetics; 12 mg, AUC0-6) was 913 ng·h/mL, the AUC(0-t) (Plasma pharmacokinetics; 12 mg, AUC0-24) was 1810 ng·h/mL and the Cmax (Plasma pharmacokinetics; 12 mg, Cmax) was 232 ng/mL. For the same compound, the CL/F (Plasma pharmacokinetics; 16 mg) was 6.09 L/h, the Vd/F (Plasma pharmacokinetics; 16 mg) was 68.5 L and the AUC(0-t) (Plasma pharmacokinetics; 16 mg, AUC0-6) was 1510 ng·h/mL. For the same compound, the Cmax (Plasma pharmacokinetics; 16 mg, Cmax) was 341 ng/mL.
